We go through 3 compounds from ChEMBL document CHEMBL2203174, “SAR Development of Lysine-Based Irreversible Inhibitors of Transglutaminase 2 for Huntington's Disease” (ACS Med Chem Lett, 2012).

For orientation: pIC50 means the IC50 on a negative log10 scale, so that one unit is a factor of ten. A high value points to a low IC50.

In test [1] the target is T1, Coagulation factor XIII A chain (Homo sapiens, UniProt P00488).
T1 sequence (P00488 whole entry): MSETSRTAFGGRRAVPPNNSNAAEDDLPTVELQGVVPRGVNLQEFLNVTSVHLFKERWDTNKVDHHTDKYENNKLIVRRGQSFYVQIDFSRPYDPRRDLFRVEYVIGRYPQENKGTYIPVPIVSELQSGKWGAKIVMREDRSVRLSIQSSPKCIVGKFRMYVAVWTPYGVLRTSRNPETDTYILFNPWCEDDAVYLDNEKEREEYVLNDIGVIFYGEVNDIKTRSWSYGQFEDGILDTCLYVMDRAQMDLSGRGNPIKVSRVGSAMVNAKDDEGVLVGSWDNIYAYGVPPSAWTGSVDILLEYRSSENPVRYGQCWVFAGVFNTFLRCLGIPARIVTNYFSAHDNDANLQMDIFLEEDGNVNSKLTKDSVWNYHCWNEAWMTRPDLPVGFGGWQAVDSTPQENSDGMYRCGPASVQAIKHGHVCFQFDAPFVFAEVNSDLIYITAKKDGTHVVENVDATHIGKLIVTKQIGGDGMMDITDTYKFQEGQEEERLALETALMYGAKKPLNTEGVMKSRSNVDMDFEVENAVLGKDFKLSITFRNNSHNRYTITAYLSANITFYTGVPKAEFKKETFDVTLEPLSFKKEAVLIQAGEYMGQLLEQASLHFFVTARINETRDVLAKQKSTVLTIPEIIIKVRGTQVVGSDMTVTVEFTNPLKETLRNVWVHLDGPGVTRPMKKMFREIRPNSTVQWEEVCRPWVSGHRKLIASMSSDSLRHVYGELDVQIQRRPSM
Nature of the test: Inhibition of coagulation factor 13a.

Test [2] concerns the target T2, Protein-glutamine gamma-glutamyltransferase 6 (Homo sapiens, UniProt O95932).
T2 sequence (O95932 whole entry): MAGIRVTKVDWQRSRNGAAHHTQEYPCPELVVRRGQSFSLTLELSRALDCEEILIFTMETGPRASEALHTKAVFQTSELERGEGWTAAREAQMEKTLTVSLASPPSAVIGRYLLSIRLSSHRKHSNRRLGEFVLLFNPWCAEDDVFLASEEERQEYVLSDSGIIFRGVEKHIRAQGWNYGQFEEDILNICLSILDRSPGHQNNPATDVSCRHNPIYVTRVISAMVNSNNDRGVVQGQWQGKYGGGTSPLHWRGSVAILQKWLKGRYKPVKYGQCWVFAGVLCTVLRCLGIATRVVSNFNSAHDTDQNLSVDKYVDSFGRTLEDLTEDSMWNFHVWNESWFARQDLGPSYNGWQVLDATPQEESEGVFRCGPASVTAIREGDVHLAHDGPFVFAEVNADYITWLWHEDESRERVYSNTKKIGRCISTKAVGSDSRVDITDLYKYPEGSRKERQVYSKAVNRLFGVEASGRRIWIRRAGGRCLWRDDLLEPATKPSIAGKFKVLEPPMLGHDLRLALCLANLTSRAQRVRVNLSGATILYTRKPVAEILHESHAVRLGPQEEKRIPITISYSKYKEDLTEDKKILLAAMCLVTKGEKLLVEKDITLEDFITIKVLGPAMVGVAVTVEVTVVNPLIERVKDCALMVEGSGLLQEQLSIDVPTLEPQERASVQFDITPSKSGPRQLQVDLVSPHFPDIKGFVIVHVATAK
Nature of the test: Inhibition of transglutaminase 6.

For test [3], the target named is T3, Protein-glutamine gamma-glutamyltransferase E (Homo sapiens, UniProt Q08188).
T3 sequence (Q08188 whole entry): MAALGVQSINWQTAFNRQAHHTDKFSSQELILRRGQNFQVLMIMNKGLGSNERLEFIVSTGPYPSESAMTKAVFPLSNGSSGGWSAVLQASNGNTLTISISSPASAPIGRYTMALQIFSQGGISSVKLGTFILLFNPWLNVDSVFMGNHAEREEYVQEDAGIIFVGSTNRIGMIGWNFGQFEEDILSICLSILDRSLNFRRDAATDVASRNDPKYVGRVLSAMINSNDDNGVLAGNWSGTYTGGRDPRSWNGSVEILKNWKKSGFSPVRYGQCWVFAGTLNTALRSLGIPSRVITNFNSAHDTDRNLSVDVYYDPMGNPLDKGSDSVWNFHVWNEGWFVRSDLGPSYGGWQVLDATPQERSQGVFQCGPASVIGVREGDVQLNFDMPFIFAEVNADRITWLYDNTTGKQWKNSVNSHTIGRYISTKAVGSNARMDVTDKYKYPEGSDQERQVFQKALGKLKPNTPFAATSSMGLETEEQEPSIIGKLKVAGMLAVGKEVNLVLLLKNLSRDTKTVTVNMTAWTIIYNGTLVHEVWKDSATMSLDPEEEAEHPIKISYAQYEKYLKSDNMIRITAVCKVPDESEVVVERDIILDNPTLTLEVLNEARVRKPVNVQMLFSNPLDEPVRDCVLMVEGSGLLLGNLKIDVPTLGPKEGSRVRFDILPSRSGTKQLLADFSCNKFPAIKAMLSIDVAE
Description: Inhibition of transglutaminase 3.

Test [4] addresses T4, Protein-glutamine gamma-glutamyltransferase K (Homo sapiens, UniProt P22735).
T4 sequence (P22735 whole entry): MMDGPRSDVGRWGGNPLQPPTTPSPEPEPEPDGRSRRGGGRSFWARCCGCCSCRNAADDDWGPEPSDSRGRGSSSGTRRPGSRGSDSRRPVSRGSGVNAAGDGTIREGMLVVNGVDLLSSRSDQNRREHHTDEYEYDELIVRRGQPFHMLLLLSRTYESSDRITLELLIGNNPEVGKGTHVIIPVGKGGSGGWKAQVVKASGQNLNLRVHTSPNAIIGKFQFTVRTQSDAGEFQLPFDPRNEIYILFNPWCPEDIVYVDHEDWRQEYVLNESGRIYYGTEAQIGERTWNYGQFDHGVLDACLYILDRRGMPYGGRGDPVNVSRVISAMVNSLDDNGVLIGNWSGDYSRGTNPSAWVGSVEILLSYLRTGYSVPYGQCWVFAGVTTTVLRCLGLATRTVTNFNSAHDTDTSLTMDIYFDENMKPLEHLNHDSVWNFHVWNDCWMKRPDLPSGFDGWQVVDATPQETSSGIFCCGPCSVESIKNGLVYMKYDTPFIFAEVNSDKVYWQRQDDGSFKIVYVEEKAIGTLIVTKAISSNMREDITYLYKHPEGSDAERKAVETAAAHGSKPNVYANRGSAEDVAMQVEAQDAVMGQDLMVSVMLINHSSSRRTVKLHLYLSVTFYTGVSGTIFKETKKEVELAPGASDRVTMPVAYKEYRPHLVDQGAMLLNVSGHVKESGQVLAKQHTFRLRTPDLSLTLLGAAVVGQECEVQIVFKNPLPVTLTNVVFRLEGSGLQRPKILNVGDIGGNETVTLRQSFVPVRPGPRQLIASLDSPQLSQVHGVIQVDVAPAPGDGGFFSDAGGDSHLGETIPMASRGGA
Description: Inhibition of transglutaminase 1.

Each structure is given as a SMILES string. pIC50: −log10 of the molar value. Peptide text beside a SMILES is read from it. * marks the point of attachment. Cbz = O=C(OCc1ccccc1)*; Acryloyl = C=CC(=O)*; OtBu = CC(C)(C)O*

`C=CC(=O)NCCCC[C@H](NC(=O)OCc1ccccc1)C(=O)NCC(=O)OC(C)(C)C` (Cbz-Lys(Acryloyl)-Gly-OtBu): the pIC50 in test [1], in test [2], in test [3] and in test [4] was less than 4.10 in each case.
Consider `C=CC(=O)NCCCC[C@H](NC(=O)OCc1ccccc1)C(=O)N1CCN(c2ccccc2Cl)CC1`, for which the pIC50 in test [1] was 4.17; in test [2], 4.16; in test [3], less than 4.10; in test [4], 4.89.
Taken in the same sequence, the figures for `C=CC(=O)NCCCC[C@H](NC(=O)Cc1ccccc1)C(=O)N1CCN(c2cccc(C)n2)CC1` were 4.46, less than 4.10, less than 4.10 and 4.82.
